The results in this text go back to US10729700B2, “Methods and compositions of bile acids and salts for reduction of fat” (priority 2014, dated 2020).

Data set [1] deals with Inguinal fat (subcutaneous fat) pads. The experiment in a line: Ex vivo fat lysis assay (MTT). In kind it is cell-based, diet induced obese mice.
Experimental: Inguinal fat (subcutaneous fat) pads were excised from diet induced obese mice and chopped to about the same size. 100 mg tissue samples were transferred to 48 well plates and incubated with 350 μl of various concentrations and pH of DCA, CDCA, CA, and phosphate buffer for 10 minutes. 70 μl of MTT solution (5 mg/ml in PBS) was added into each well and incubated for overnight at 37° C. The solution was removed and precipitated formazan product was dissolved in 300 μl of DMSO. Tissue viability was monitored by measuring the optical density at 570 nm (OD570) using a microplate reader.
The test system of data set [2] is inguinal fat pad of obese mouse. The experiment in a line: In vivo monitoring of bile salts induced fat loss. As to conditions: 1% solutions, 5 times during 2 weeks.
Data set [3] can be described thus: Stability of bile salts in aqueous solution. As to conditions: for Solution stability of bile salt: 1% in 10 mM phosphate buffer; for pH stability: summary, Table 4.
Experimental: 0.01 g of bile salts (UDCA, DCA, CDCA and CA) were dissolved in 1 ml of phosphate buffer and placed at room temperature for 10 days.
In data set [4] the test system is inguinal fat pads of obese mice. The data set can be described thus: Quantitation of in vivo necrotic area (TTC staining) and histology of injected fat pads.
Experimental: Various concentrations of bile salts (DCA, CDCA, and CA) solutions in 100 μl volume of PBS were injected to the inguinal fat pads of obese mice. Mice were sacrificed at 1 day after the injection. Mouse inguinal fat pads were stained with 2% TTC (Sigma-Aldrich Chemical, St. Louis, Mo., USA) in PBS for 2 hour to identify the non-necrotic and necrotic areas and subsequently immersed in 10% formalin to enhance the contrast. […] The appearance and area of necrotic fat regions were captured and imaged by scanner. The necrotic area of fat pad treated DCA, CDCA, CA, and PBS was calculated by Image J.
The next data set concerns 3T3-L1 adipocytes. The experiment in a line: Cell lysis effect by detergent in vitro (MTT assay). The data set is classed as cell-based. Conditions: for EC50 (concentration that kills 50% of the cells) / ED50 (% w/v); EC50 values of bile salts required to lysis of adipose cells in vitro: differentiated 3T3-L1 adipocytes; for ED50 (% w/v); EC50 values of bile salts required to lysis of adipose cells in vitro: 1 hour, MTT. On the technique in general: Tetrazolium assays rely on reduction of a dye to a coloured formazan, in cell work by metabolically active cells.

The test system of a further data set is rat paws. The experiment in a line: Bile salt-induced paw edema. As to conditions: concentrations and pHs showing similar tissue lysis effects, 4 hours after injection.

Experimental for 3T3-L1 adipocytes: To induce adipocyte differentiation, 3T3-L1 pre-adipocytes were seeded in 96-well plate (5×10^3 cells/well) and grown until 2 days post-confluence (day 0) and then treated for 2 days with growth media plus MDI (0.5 μM methylisobutylxanthine, 1 μM dexamethasone and 10 ug/ml insulin; all from Sigma-Aldrich Chemical, St. Louis, Mo., USA), followed by 2 days of treatment with the media containing 10 ug/ml insulin alone. Medium was replaced every 2 days for the following 8 days. Differentiated adipocytes in 96 well plate were washed twice with PBS and incubated in various concentrations of bile salts in serum free DMEM. After 1 hour incubation at 37° C., media were changed and 20 μl of MTT solution (5 mg MTT/ml in PBS) was added into each well and incubated for 1 hour at 37° C. The resultant formazan product was dissolved in 100 μl of DMSO/well and cell viability was determined by measuring the optical density at 570 nm (OD570) using a microplate reader.
Experimental for rat paws: Male SD rats (6 weeks old) were purchased from Koatech Co. (Seoul, Korea) and used after 1 week of acclimation. Rats (200˜230 g) were randomly selected and the volume of intact rats paw was measured in all groups using a digital caliper (Bluebird, Seoul, Korea). […] To induce the edema, rats received 100 μl of various bile salts and PBS into the plantar region of the hind foot of rats. Measurements of the paw volume were performed by a caliper immediately before the bile salts injection and 4 hours after injection.

Take `C[C@H](CCC(=O)O)[C@H]1CC[C@H]2[C@@H]3[C@H](O)C[C@@H]4C[C@H](O)CC[C@]4(C)[C@H]3CC[C@]12C` [CDCA, chenodeoxycholate]: the “EC50 concentrations, ex vivo condition” value in data set [1] stood at 0.0180%. Further, the “ED50 (% w/v); EC50 values of bile salts required to lysis of fat tissues ex vivo” value in data set [1] (fat tissues of high fat diet mice, 10 minutes, MTT) came out at 0.018 % w/v. In addition, the “effect of increased pH of solution on fat lysis activities” value in data set [1] (pH 6.0 ˜pH 9.0, bile salt at EC50 in pH 7.4) is “greatly diminishes the fat lysis activities”. Further, the “fat lysis activities above the pH 9” value in data set [1] (solutions above the pH 9) was “mostly lost their fat lysis activities”. In data set [2], the “histology of injected area (H & E)” value is recorded as “Fibrotic areas”. Further, in data set [2], the “lesions in the administered area of fat tissues” value is on record as “yellowish lesions”. Further, the “Solution stability of bile salt” value in data set [3] (pH 6.5, 25° C.) is “Gelaton”; in data set [3] (pH 6.7, 25° C.) it was “Gelation”; in data set [3] (pH 7.0, 25° C.) it was “Gelation”; in data set [3] (pH 7.2, 25° C.), “Precipitation”; in data set [3] (pH 7.4, 25° C.) it was “Stable”; in data set [3] (pH 7.6, 25° C.), “Stable”. The “Solution stability of bile salt” value in data set [3] (pH 7.8, 25° C.) is “Stable”; in data set [3] (pH 8.0, 25° C.) it was “Stable”; in data set [3] (pH 8.3, 25° C.), “Stable”. In data set [3], the pH stability is <7.4. Further, the “concentration enough to show similar tissue lysis effect with 1% DCA (pH 8.3)” value in data set [4] (CA at pH 7.0, CDCA at pH 7.4) stood at 0.6%. Also, in data set [4] (same pH (pH 7.4)), the “concentration showing similar tissue lysis activity with the injection of 1% DCA” value came to 1%. In the data set on 3T3-L1 adipocytes, the “EC50 (concentration that kills 50% of the cells)” value stood at 0.060%. Moreover, the “ED50 (% w/v); EC50 values of bile salts required to lysis of adipose cells in vitro” value in the data set with 3T3-L1 adipocytes is given as 0.0597 % w/v. In addition, the “viability of adipocyte cells” value in the data set on 3T3-L1 adipocytes (low concentration (below 0.1%)) is given as “reduced the viability of adipocyte cells”. For the same molecule, in the data set on rat paws, the “severity of edema (paw thickness)” value is “slightly lower symptom”.

In the case of `C[C@H](CCC(=O)NCCS(=O)(=O)O)[C@H]1CC[C@H]2[C@@H]3[C@@H](O)C[C@@H]4C[C@H](O)CC[C@]4(C)[C@H]3CC[C@]12C` [TUDCA, taurourosodeoxycholate], in the data set with 3T3-L1 adipocytes (up to 2% concentration), the “viability of adipocyte cells” value is “did not reduce the viability of adipocyte cells”.

With `C[C@H](CCC(=O)O)[C@H]1CC[C@H]2[C@@H]3[C@@H](O)C[C@@H]4C[C@H](O)CC[C@]4(C)[C@H]3CC[C@]12C` [UDCA, ursodeoxycholate], the “pH in which aqueous solution remained stable” value in data set [3] (1% (w/v), 10 mM phosphate buffer, 25° C.) is given as < 7.8. Moreover, the “Solution stability of bile salt” value in data set [3] (pH 6.5, 25° C.) is recorded as “Precipitation”; in data set [3] (pH 6.7, 25° C.) it was “Precipitation”; in data set [3] (pH 7.0, 25° C.) it was “Precipitation”; in data set [3] (pH 7.2, 25° C.), “Precipitation”; in data set [3] (pH 7.4, 25° C.), “Precipitation”; in data set [3] (pH 7.6, 25° C.), “Precipitation”. Also, the “Solution stability of bile salt” value in data set [3] (pH 7.8, 25° C.) was “Stable”; in data set [3] (pH 8.0, 25° C.), “Stable”; in data set [3] (pH 8.3, 25° C.), “Stable”. For the same molecule, the pH stability in data set [3] is listed as <7.8. Moreover, the “histological changes in fat pads (H & E)” value in data set [4] (1.5% solution) is on record as “Infiltration of polymorphonuclear (PMN) cells into the fat pad tissue was observed”. Further, the “tissue lysis effect with higher concentration” value in data set [4] (necrotic area, FIGS. 12B and 12C) is “did not increased proportionally”. Besides, the “inflammation after injection to subcutaneous fat” value in data set [4] (one time injection) is reported as “severe inflammation”. For the same molecule, the “EC50 (concentration that kills 50% of the cells)” value with 3T3-L1 adipocytes is recorded as 0.25%. For the same molecule, the “ED50 (% w/v); EC50 values of bile salts required to lysis of adipose cells in vitro” value with 3T3-L1 adipocytes was 0.328 % w/v. For the same molecule, the “severity of edema (paw thickness)” value with rat paws is “slightly lower symptom”.
